# Data as given in ChEMBL document CHEMBL1201862, “PubChem BioAssay data set” (2004).
# Where “and” joins values, the source holds several entries; their conditions need not be identical. Equal values may be shown once. Calls of active or inactive are those of the source.
# How the values were obtained:
# Coagulation factor XII = Coagulation factor XII (Homo sapiens, UniProt P00748); type: functional;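 further: activated factor XIIa alpha cleaving a fluorogenic AMC peptide substrate; inhibitor potency from loss of enzyme activity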
# [1] = molecular target: DNA dC->dU-editing enzyme APOBEC-3A (Homo sapiens, UniProt P31941); assay: Dose Response confirmation of small molecule APOBEC3A DNA Deaminase Inhibitors via a fluorescence-based single-stranded DNA deaminase assay. [Related pubchem assays (depositor defined):AID493011, AID493024]; type: functional
# [2] = molecular target: DNA dC->dU-editing enzyme APOBEC-3G (Homo sapiens, UniProt Q9HC16); type: functional;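 further: Dose-response counterscreen measuring inhibition of APOBEC3G DNA deaminase activity, run while confirming APOBEC3A inhibitors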
# [3] = molecular target: T1, Carboxy-terminal domain RNA polymerase II polypeptide A small phosphatase 1 (Homo sapiens, UniProt Q9GZU7); assay: inhibitors of CTDSP1, concentration-response testing, biochemical assay, absorbance-based, actives from ultra-high-throughput screening (AID 540297); type: functional
# T1 sequence (Q9GZU7 whole entry): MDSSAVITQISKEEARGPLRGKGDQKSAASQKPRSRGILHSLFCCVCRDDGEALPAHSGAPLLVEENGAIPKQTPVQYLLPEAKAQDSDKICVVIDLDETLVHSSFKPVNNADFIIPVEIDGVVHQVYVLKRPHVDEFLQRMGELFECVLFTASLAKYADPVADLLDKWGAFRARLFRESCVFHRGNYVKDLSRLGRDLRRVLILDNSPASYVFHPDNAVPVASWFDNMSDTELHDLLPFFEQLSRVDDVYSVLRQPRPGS
# Ion channel NompC = Ion channel NompC (Danio rerio, UniProt Q7T1G6); assay: Dose response cell-based high-throughput screening assay for agonists of the transient receptor potential channel N1 (TRPN1). [Related pubchem assays (depositor defined):AID1424, AID1448]; type: functional
# Mucolipin-3 = molecular target: T2, Mucolipin-3 (Homo sapiens, UniProt Q8TDD5); assay: Fluorescence counterscreen assay for […] agonists: dose response cell-based high-throughput screening assay to identify agonists of the transient receptor potential channel ML3 (TRPML3). [Related pubchem assays: 1424, 1448 ]; type: functional
# T2 sequence (Q8TDD5 whole entry): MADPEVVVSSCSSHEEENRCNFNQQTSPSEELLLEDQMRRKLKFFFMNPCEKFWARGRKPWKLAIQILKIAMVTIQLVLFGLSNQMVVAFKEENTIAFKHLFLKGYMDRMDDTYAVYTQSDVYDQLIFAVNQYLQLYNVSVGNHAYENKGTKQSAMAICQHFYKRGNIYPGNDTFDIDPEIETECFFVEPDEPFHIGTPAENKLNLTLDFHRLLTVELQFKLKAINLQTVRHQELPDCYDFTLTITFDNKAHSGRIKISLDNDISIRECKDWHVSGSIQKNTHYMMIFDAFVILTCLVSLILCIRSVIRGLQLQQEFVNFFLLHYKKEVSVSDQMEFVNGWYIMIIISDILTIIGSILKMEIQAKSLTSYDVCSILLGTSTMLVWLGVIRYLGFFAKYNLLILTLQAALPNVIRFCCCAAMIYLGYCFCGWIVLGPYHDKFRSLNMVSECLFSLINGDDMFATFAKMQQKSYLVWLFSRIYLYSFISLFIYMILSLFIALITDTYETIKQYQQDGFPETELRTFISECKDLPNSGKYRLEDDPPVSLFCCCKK
# [4] = molecular target: T3, Probable nicotinate-nucleotide adenylyltransferase (Staphylococcus aureus (strain N315), UniProt P65502); type: functional, Staphylococcus aureus subsp. aureus N315;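 on IC50 Mean: confirmatory dose-response retesting of NadD inhibitor hits first found in an ultra-high-throughput screen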
# [5] = molecular target: T3, Probable nicotinate-nucleotide adenylyltransferase; type: functional, Staphylococcus aureus subsp. aureus N315; details: read-out: IC50_Mean
# [6] = molecular target: 1-acylglycerol-3-phosphate O-acyltransferase ABHD5/Perilipin-5 (Homo sapiens, UniProt Q00G26+Q8WTS1); assay: Luminescence-based biochemical high throughput dose response assay for inhibitors of the interaction of the lipase co-activator protein, abhydrolase domain containing 5 (ABHD5) with perilipin-5 (MLDP; PLIN5) (2K validation set). [Related pubchem assays (depositor defined):AID493035, AID493241]
# Perilipin-1/ABHD5 = Perilipin-1/ABHD5 (Homo sapiens, UniProt O60240+Q8WTS1); assay: Luminescence-based biochemical high throughput dose response assay for inhibitors of the interaction of the lipase co-activator protein, abhydrolase domain containing 5 (ABHD5) with perilipin-1 (PLIN1) (2K validation set). [Related pubchem assays (depositor defined):AID493027, AID493057]
# [7] = THP-1 cell cytotoxicity, dose response, cytotoxicity control for non-replicating M. tuberculosis project (AID 489025); type: functional
# [8] = HepG2 cell cytotoxicity, dose response, cytotoxicity control for non-replicating M. tuberculosis project (AID 489018); type: functional; details: Mycobacterium tuberculosis
# [9] = Vero E6 cell cytotoxicity, dose response, cytotoxicity control for non-replicating M. tuberculosis project, secondary assay (AID 492998); type: functional, VeroE6; details: Vero C1008
# cells = type: functional
# [10] = molecular target: T4, Tyrosine-protein phosphatase non-receptor type 7 (Homo sapiens, UniProt P35236); assay: SAR analysis of chemical inhibitors of HePTP using a Fluorescent assay - Set 2. [Related pubchem assays (depositor defined):AID1059, AID1077, AID1661, AID2085, AID521]; type: functional
# T4 sequence (P35236 whole entry): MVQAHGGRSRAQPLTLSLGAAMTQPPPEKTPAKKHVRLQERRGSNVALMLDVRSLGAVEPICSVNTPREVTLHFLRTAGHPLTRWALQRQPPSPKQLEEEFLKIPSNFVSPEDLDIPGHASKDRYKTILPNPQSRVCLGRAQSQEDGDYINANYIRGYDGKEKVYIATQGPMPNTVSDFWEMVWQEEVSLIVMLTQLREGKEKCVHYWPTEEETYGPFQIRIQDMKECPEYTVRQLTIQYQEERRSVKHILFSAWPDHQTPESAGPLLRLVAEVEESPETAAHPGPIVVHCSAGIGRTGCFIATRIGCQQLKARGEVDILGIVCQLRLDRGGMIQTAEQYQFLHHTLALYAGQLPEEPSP
# [11] = molecular target: Dual specificity protein phosphatase 3 (Homo sapiens, UniProt P51452); assay: SAR VHR1 Fluorescent Assay for In Vitro dose response studies Set 2. [Related pubchem assays (depositor defined):AID1654, AID1661, AID1878]; type: functional
# SUMO-activating enzyme = SUMO-activating enzyme (Homo sapiens, UniProt Q9UBT2); assay: SUMOylation inhibitor hit validation, confirmation, SUMOylation inhibitor project, biochemical, AlphaScreen (AID 2018); type: functional
# [12] = molecular target: T5, Mannose-6-phosphate isomerase (Homo sapiens, UniProt P34949); assay: PMI enzyme inhibitors, confirmation, biochemical, fluorescence intensity (AID 1535)
# T5 sequence (P34949 whole entry): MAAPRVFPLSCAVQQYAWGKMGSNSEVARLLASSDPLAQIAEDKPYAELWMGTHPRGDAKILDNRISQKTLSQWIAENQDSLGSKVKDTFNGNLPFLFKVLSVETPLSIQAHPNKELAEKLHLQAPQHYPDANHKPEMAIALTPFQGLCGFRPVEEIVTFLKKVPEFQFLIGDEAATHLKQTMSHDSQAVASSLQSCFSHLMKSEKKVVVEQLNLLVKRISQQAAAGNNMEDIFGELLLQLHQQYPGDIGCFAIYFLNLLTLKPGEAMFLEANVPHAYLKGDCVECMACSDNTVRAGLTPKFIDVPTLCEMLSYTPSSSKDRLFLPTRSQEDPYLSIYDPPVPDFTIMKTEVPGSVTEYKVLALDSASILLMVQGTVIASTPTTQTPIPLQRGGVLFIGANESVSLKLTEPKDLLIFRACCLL
# Phosphomannomutase 2 = molecular target: T6, Phosphomannomutase 2 (Homo sapiens, UniProt O15305); assay: Counter screen SAR assay for PMM2 inhibitors via a fluorescence intensity assay. [Related pubchem assays (depositor defined):AID1545, AID1574]
# T6 sequence (O15305 whole entry): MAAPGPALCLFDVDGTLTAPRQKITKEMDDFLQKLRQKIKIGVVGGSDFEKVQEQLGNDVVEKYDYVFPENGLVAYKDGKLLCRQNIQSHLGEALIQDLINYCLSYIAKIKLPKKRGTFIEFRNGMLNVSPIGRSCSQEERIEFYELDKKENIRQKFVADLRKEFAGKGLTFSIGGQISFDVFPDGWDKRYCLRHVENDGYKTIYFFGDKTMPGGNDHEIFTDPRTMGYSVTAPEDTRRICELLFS
# [13] = molecular target: Phosphoethanolamine/phosphocholine phosphatase (Homo sapiens, UniProt Q8TCT1); assay: SAR assay for compounds that inhibit PHOSPHO1. [Related pubchem assays (depositor defined):AID1545, AID1565, AID1574]
# [14] = molecular target: T7, Alkaline phosphatase, tissue-nonspecific isozyme (Homo sapiens, UniProt P05186); assay: human TNAP enzyme inhibitors, SAR follow-up, biochemical, luminescent, dose response (AID 1056)
# T7 sequence (P05186 whole entry): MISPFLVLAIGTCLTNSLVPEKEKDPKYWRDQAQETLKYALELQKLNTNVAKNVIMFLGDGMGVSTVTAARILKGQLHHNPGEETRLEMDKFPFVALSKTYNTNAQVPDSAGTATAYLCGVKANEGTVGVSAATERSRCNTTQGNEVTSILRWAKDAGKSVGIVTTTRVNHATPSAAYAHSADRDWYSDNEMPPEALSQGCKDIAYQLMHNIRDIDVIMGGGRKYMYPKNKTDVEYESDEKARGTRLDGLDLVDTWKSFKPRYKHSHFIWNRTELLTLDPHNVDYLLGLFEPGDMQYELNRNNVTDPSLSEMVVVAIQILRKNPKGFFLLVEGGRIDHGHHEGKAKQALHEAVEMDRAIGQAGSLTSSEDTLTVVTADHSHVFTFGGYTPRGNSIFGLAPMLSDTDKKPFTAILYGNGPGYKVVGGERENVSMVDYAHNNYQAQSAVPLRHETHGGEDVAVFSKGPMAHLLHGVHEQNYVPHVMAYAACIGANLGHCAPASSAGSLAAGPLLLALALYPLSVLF
# [15] = molecular target: T8, Short transient receptor potential channel 4 (Mus musculus, UniProt Q9QUQ5); assay: mouse TRPC4 channel inhibitors, dose response, cell-based, HEK293 TRPC4/mu-opioid, Fluo-4 calcium (AID 434942); type: functional;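 further: potency of inhibitors blocking the TRPC4 calcium response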
# T8 sequence (Q9QUQ5 whole entry): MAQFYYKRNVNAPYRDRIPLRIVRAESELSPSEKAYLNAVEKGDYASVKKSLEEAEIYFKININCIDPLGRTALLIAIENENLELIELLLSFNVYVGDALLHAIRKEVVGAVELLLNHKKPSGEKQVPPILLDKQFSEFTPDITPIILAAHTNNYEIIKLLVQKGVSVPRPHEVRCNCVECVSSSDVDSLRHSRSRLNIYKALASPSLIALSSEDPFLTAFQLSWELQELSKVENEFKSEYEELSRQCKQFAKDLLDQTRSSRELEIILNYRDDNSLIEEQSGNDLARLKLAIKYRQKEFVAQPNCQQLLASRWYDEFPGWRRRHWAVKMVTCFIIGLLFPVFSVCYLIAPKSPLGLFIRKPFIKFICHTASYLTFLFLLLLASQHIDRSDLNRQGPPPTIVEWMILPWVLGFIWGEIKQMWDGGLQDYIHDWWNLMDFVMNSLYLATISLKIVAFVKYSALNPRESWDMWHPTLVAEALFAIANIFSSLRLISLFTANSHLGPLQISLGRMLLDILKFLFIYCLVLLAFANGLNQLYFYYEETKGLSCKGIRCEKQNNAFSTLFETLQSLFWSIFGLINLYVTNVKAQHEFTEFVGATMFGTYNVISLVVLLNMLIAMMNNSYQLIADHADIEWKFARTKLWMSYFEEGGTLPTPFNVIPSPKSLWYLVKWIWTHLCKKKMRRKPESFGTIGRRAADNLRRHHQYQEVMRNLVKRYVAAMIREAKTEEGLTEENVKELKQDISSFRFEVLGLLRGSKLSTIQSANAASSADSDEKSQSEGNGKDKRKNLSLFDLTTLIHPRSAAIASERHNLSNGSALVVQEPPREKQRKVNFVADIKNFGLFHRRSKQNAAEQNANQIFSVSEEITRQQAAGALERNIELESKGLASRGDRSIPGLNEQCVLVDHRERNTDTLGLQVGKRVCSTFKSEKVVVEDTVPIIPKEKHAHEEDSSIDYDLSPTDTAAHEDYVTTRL
# Chain of DNA dC->dU-editing enzyme APOBEC-3G (Q9HC16 whole entry, the tested form may be a part): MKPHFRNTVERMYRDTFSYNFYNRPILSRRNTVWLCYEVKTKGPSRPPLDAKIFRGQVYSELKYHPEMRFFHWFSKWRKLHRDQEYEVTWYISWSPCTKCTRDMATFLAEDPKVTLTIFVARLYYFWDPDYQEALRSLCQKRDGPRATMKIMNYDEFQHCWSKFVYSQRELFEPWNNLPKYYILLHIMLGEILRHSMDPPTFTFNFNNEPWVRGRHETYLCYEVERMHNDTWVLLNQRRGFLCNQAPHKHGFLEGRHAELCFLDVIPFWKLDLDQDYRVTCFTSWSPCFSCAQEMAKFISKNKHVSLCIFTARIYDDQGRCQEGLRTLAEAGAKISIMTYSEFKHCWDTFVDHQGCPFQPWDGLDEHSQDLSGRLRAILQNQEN
# Chain of Perilipin-1/ABHD5 (Q8WTS1 whole entry, the tested form may be a part): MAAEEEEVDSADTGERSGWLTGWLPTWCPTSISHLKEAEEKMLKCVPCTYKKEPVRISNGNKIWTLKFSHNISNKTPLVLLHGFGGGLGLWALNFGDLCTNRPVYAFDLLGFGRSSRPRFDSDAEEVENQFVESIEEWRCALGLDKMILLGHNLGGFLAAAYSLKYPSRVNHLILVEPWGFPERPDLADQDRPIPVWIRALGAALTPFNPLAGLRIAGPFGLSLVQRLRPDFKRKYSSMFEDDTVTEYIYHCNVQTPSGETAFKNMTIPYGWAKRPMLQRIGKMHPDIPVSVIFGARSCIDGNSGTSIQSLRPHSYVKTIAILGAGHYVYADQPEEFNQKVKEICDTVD
# Chain of Perilipin-1/ABHD5 (O60240 whole entry, the tested form may be a part): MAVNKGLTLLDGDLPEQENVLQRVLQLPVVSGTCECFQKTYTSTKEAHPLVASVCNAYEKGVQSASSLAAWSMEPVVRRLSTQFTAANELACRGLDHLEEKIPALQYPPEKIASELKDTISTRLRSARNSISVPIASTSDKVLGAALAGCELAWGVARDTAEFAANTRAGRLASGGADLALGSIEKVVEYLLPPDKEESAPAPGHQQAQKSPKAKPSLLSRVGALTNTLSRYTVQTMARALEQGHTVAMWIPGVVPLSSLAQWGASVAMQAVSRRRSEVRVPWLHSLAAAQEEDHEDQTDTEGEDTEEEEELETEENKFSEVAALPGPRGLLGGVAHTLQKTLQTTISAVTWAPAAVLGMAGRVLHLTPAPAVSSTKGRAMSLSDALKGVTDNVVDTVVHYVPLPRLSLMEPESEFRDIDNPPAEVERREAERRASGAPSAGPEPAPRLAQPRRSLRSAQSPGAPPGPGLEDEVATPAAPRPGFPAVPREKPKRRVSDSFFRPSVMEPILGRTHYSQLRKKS
# Chain of 1-acylglycerol-3-phosphate O-acyltransferase ABHD5/Perilipin-5 (Q00G26 whole entry, the tested form may be a part): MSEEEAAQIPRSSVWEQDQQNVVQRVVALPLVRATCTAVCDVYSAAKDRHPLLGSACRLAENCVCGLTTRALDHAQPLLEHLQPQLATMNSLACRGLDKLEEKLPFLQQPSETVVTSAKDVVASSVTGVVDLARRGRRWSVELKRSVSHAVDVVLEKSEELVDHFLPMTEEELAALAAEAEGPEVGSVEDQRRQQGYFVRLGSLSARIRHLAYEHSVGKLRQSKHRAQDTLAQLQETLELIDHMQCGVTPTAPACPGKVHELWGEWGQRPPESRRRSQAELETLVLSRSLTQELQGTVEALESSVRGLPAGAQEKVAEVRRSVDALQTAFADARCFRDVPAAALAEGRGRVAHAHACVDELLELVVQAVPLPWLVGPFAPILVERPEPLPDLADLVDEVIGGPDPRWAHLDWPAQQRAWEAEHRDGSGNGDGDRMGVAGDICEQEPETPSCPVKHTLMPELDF
# Chain of 1-acylglycerol-3-phosphate O-acyltransferase ABHD5/Perilipin-5 (Q8WTS1 whole entry, the tested form may be a part): as the sequence (Q8WTS1 whole entry, the tested form may be a part) above
# T3 sequence (P65502 whole entry): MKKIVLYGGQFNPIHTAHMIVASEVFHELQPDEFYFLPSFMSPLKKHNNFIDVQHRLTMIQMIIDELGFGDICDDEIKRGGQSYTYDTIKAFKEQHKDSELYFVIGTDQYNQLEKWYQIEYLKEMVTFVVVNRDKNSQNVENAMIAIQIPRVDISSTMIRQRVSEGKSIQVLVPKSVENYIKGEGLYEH
# Chain of Coagulation factor XII (P00748 20-372 limits assumed): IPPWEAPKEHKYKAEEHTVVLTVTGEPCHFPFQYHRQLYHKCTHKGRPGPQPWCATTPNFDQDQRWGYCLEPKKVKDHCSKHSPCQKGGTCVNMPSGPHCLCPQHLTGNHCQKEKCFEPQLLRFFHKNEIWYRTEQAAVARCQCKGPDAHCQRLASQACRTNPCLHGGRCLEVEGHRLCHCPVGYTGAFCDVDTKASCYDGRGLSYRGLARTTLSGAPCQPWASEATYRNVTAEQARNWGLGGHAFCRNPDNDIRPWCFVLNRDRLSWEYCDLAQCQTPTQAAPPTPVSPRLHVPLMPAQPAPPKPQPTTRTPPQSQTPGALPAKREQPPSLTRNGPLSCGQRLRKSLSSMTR
# Chain of Coagulation factor XII (P00748 373-615 limits assumed): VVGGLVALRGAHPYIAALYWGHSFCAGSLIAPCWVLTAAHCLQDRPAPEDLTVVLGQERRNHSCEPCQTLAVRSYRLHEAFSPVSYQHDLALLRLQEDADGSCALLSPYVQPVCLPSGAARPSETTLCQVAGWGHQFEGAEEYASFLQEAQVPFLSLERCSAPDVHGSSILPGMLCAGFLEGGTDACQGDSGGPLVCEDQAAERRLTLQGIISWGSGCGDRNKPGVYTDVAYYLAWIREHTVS
# Chain of DNA dC->dU-editing enzyme APOBEC-3A (P31941 whole entry): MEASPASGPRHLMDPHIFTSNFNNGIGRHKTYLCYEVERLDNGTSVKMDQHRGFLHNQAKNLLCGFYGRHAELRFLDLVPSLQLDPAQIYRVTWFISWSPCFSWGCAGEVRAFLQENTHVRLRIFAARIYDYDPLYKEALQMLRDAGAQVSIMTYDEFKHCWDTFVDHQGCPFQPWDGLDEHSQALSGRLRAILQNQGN
# Chain of Dual specificity protein phosphatase 3 (P51452 whole entry): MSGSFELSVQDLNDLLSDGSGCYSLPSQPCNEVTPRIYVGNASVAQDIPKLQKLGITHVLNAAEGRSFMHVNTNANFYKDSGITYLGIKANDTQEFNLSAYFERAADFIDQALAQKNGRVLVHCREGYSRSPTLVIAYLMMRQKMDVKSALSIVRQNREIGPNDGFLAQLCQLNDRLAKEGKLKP
# Chain of Phosphoethanolamine/phosphocholine phosphatase (Q8TCT1 whole entry): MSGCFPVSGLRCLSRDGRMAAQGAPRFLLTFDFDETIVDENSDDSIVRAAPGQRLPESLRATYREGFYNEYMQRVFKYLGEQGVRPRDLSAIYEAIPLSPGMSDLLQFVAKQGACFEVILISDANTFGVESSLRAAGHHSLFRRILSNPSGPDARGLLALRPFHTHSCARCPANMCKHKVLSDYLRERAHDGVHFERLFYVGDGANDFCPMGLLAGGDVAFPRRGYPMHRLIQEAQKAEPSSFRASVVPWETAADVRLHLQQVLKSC
# Chain of Ion channel NompC (Q7T1G6 whole entry): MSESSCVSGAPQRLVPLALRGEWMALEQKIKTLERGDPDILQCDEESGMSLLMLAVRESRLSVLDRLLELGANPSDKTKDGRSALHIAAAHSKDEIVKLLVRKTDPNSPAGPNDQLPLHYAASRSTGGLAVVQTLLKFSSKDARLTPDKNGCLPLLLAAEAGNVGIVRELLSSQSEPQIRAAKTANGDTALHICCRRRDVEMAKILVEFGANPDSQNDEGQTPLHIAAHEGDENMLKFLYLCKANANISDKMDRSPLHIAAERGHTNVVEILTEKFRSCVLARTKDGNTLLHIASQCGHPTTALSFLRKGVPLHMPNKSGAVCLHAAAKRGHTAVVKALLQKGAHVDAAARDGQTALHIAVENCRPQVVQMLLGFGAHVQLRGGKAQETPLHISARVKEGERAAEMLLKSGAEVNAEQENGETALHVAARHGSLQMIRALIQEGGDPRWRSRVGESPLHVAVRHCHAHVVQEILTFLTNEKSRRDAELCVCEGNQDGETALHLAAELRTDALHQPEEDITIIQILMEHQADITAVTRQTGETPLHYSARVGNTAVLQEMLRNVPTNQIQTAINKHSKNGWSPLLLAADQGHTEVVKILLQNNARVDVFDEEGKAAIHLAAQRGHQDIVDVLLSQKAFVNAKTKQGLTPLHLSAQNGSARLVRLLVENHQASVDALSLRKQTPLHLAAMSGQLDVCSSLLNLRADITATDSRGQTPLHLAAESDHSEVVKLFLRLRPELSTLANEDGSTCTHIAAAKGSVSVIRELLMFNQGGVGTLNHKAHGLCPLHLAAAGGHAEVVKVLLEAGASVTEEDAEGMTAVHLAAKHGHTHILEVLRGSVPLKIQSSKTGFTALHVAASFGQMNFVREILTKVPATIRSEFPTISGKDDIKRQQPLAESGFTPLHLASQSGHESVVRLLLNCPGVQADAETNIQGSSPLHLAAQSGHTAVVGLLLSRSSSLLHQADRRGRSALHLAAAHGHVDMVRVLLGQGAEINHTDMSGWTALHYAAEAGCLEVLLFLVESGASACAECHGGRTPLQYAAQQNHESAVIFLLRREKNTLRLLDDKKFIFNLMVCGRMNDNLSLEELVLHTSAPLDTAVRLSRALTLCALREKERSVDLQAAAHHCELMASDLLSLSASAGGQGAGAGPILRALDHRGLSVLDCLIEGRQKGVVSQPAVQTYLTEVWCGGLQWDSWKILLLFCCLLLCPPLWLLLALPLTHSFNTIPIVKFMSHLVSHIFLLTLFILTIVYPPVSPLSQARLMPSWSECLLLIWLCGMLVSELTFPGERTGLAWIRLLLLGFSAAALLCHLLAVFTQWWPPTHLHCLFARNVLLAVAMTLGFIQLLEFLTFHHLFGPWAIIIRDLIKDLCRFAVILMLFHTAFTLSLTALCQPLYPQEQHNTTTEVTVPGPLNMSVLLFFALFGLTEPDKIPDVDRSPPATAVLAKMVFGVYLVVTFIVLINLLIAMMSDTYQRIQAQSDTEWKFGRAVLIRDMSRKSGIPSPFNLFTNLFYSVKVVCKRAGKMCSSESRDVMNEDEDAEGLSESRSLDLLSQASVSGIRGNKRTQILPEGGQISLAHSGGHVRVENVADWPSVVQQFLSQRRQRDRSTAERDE
smiles,measurement,setting,value
CC(C)=CCC/C(C)=C/CC/C(C)=N/O,IC50,Coagulation factor XII,> 50 µM (inactive)
C=CC#CC1(O)CC(C)[N+](C)(C)CC1C (configuration not stated),IC50,[1],1.97 µM (active)
same,IC50,[2],5.58 µM (active)
same,IC50,[3],7.57 µM (active)
COc1ccc(C(=O)NNC(=S)NC(=O)c2cc(-c3ccccc3)nc3ccccc23)cc1,EC50,Ion channel NompC,> 29.9 µM (inactive)
same,EC50,Mucolipin-3,> 29.9 µM (not active)
same,IC50,[4],7.14 µM (active)
same,IC50,[5],26.4 µM (active)
N#C/C(=C/c1ccccc1)C(=O)NCc1ccccc1,IC50,[6],17.2 µM (inactive)
same,IC50,Perilipin-1/ABHD5,13.1 µM (inactive)
O=C(NC(=S)N1CCc2ccccc21)c1ccccc1,CC50,[7],> 40 µM (active)
same,CC50,[8],> 20 µM (active)
same,CC50,[9],> 20 µM (active)
same,IC50,cells,9.86 µM (active)
COc1ccc(OC)c(C(=S)NCc2ccc(F)cc2)c1,IC50,[10],8.78 µM (active)
same,IC50,[11],13.5 µM (active)
CNS(=O)(=O)c1cc(C(=O)O)ccc1OC,IC50,Coagulation factor XII,> 50 µM (inactive)
CCOc1ccc(-n2c(SCC(=O)Nc3ccc(CC)cc3)nc3nnc(C)c-3c2N)cc1,IC50,SUMO-activating enzyme,36.9 µM (active)
CCN1C(NCc2cc(OC)c(OC)c(OC)c2)=N[C@@H](c2ccccc2)C(C(=O)OC)=C1C,IC50,[1],4.15 µM (active)
same,IC50,[2],3.54 µM (active)
Cc1ccc(C)c(-n2sc3cc(F)ccc3c2=O)c1,IC50,[12],0.985 µM (active)
same,IC50,Phosphomannomutase 2,9.95 µM (active) and 4.57 µM (active)
same,IC50,[13],4.1 µM (inactive)
same,IC50,[14],> 100 µM (inactive)
COc1ccc(C(c2nnnn2C2CCCC2)N2CCN(c3ccccc3)CC2)cc1 (configuration not stated),EC50,[15],5.31 µM (active)
Cc1ccc(C2=NOC(=O)/C2=C\C=C\c2ccccc2)cc1,IC50,[6],1.12 µM (active)
same,IC50,Perilipin-1/ABHD5,1.23 µM (active)
